“And” between values parts separate entries of the source, which are not always exact repeats. Identical values can stand only once. Toxic doses and inconclusive results are not listed. Rule for the calls: active = survival T/C of 150% or more; inactive = T/C below 125% in these data.
Tested on: P388 leukemia ip, CD2F1 mice, survival T/C
Assay: NCI In Vivo Anticancer Drug Screen. Data for tumor model P388 Leukemia (intraperitoneal) in CD2F1 (CDF1) mice
Conditions: endpoint: median survival time, higher = longer survival
In short: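 Mice carrying the transplanted tumor received test compound or vehicle. Survival was recorded in each group, and the value is the treated-group measurement divided by that of the vehicle-treated control group.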

[1] = dose: 50.0 mg/kg/injection, schedule: Q01DX005 (ip), vehicle: Klucel (hydroxypropylcellulose) (HPC)
[2] = dose: 100.0 mg/kg/injection, schedule: Q01DX005 (ip), vehicle: Klucel (hydroxypropylcellulose) (HPC)
[3] = dose: 200.0 mg/kg/injection, schedule: Q01DX005 (ip), vehicle: Klucel (hydroxypropylcellulose) (HPC)
[4] = dose: 60.0 mg/kg/injection, schedule: Q01DX005 (ip), vehicle: saline with Tween-80
[5] = dose: 120.0 mg/kg/injection, schedule: Q01DX005 (ip), vehicle: saline with Tween-80
[6] = dose: 240.0 mg/kg/injection, schedule: Q01DX005 (ip), vehicle: saline with Tween-80
[7] = dose: 100.0 mg/kg/injection, schedule: Q01DX009 (ip), vehicle: saline with Tween-80
[8] = dose: 200.0 mg/kg/injection, schedule: Q01DX009 (ip), vehicle: saline with Tween-80
[9] = dose: 400.0 mg/kg/injection, schedule: Q01DX009 (ip), vehicle: saline with Tween-80
[10] = dose: 50.0 mg/kg/injection, schedule: Q01DX005 (ip), vehicle: saline with Tween-80
[11] = dose: 100.0 mg/kg/injection, schedule: Q01DX005 (ip), vehicle: saline with Tween-80
[12] = dose: 200.0 mg/kg/injection, schedule: Q01DX005 (ip), vehicle: saline with Tween-80
[13] = dose: 50.0 mg/kg/injection, schedule: Q01DX009 (ip), vehicle: Klucel (hydroxypropylcellulose) (HPC)
[14] = dose: 100.0 mg/kg/injection, schedule: Q01DX009 (ip), vehicle: Klucel (hydroxypropylcellulose) (HPC)
[15] = dose: 200.0 mg/kg/injection, schedule: Q01DX009 (ip), vehicle: Klucel (hydroxypropylcellulose) (HPC)
[16] = dose: 100.0 mg/kg/injection, schedule: Q04DX003 (ip), vehicle: saline with Tween-80
[17] = dose: 200.0 mg/kg/injection, schedule: Q04DX003 (ip), vehicle: saline with Tween-80
[18] = dose: 400.0 mg/kg/injection, schedule: Q04DX003 (ip), vehicle: saline with Tween-80
[19] = dose: 25.0 mg/kg/injection, schedule: Q01DX009 (ip), vehicle: saline
[20] = dose: 100.0 mg/kg/injection, schedule: Q01DX001 (ip), vehicle: saline with Tween-80
[21] = dose: 200.0 mg/kg/injection, schedule: Q01DX001 (ip), vehicle: saline with Tween-80
[22] = dose: 25.0 mg/kg/injection, schedule: Q01DX009 (ip), vehicle: saline with Tween-80
[23] = dose: 50.0 mg/kg/injection, schedule: Q01DX009 (ip), vehicle: saline with Tween-80
[24] = dose: 60.0 mg/kg/injection, schedule: Q01DX005 (ip), vehicle: Klucel (hydroxypropylcellulose) (HPC)
[25] = dose: 120.0 mg/kg/injection, schedule: Q01DX005 (ip), vehicle: Klucel (hydroxypropylcellulose) (HPC)
[26] = dose: 240.0 mg/kg/injection, schedule: Q01DX005 (ip), vehicle: Klucel (hydroxypropylcellulose) (HPC)

Measured: T/C

Cc1nc2c(cnn2C)c(=O)n1-c1cccc(Cl)c1
inactive: [1] 98 % of control | [2] 100 % of control | [3] 87 % of control

C[n+]1ccc(C#N)c(C#N)c1
inactive: dose: 3.75 mg/kg/injection, schedule: Q01DX005 (ip), vehicle: Klucel (hydroxypropylcellulose) (HPC) 102 % of control | dose: 7.5 mg/kg/injection, schedule: Q01DX005 (ip), vehicle: Klucel (hydroxypropylcellulose) (HPC) 116 % of control | dose: 15.0 mg/kg/injection, schedule: Q01DX005 (ip), vehicle: Klucel (hydroxypropylcellulose) (HPC) 103 % of control | dose: 30.0 mg/kg/injection, schedule: Q01DX005 (ip), vehicle: Klucel (hydroxypropylcellulose) (HPC) 108 % of control and 110 % of control

O=C1OCCN1c1cccc2ccccc12
inactive: [4] 95 % of control | [5] 96 % of control | [6] 93 % of control

COc1cc(/C=N/NC(=O)COc2ccccc2)ccc1O
inactive: [4] 100 % of control | [5] 103 % of control | [6] 98 % of control

CN(C)C(=O)c1cccc(COc2ccc(N)cc2Cl)c1
inactive: [7] 95 % of control | [8] 90 % of control | [9] 95 % of control

CC(=O)Nc1cccc2c1CCCC2
inactive: [10] 100 % of control | [11] 102 % of control | [12] 102 % of control

Cc1cc(N=Cc2cccs2)ccc1Br
inactive: [13] 101 % of control and 98 % of control | [14] 100 % of control and 101 % of control and 102 % of control | [15] 102 % of control and 95 % of control | dose: 400.0 mg/kg/injection, schedule: Q01DX009 (ip), vehicle: Klucel (hydroxypropylcellulose) (HPC) 105 % of control

FC(F)(F)COP(OCC(F)(F)F)OCC(F)(F)F
inactive: [16] 118 % of control | [17] 102 % of control | [18] 104 % of control

CCc1nc(N)nc(N)c1-c1ccc2c(c1)nnn2C
inactive: [1] 104 % of control | [2] 104 % of control | [3] 95 % of control

CCOC(=O)Oc1ccc[nH]c1=O
inactive: [19] 100 % of control and 96 % of control | dose: 25.0 mg/kg/injection, schedule: Q01DX009 (sc), vehicle: saline with Tween-80 100 % of control and 109 % of control | dose: 50.0 mg/kg/injection, schedule: Q01DX009 (ip), vehicle: saline 100 % of control | dose: 50.0 mg/kg/injection, schedule: Q01DX009 (sc), vehicle: saline with Tween-80 108 % of control and 109 % of control | dose: 100.0 mg/kg/injection, schedule: Q01DX009 (ip), vehicle: saline 108 % of control and 109 % of control | dose: 100.0 mg/kg/injection, schedule: Q01DX009 (sc), vehicle: saline with Tween-80 106 % of control and 115 % of control | dose: 200.0 mg/kg/injection, schedule: Q01DX009 (ip), vehicle: saline 111 % of control and 113 % of control | dose: 200.0 mg/kg/injection, schedule: Q01DX009 (sc), vehicle: saline with Tween-80 104 % of control and 116 % of control | dose: 400.0 mg/kg/injection, schedule: Q01DX009 (ip), vehicle: saline 117 % of control and 124 % of control | dose: 400.0 mg/kg/injection, schedule: Q01DX009 (sc), vehicle: saline with Tween-80 101 % of control and 108 % of control | dose: 600.0 mg/kg/injection, schedule: Q01DX009 (sc), vehicle: saline with Tween-80 107 % of control and 112 % of control

Cc1cccc(C)c1Nc1nnc(-c2ccc(N(C)C)cc2)s1
inactive: [4] 86 % of control | [5] 87 % of control

CCNC(=S)N/N=C(/c1ccccc1)c1ccccn1
inactive: [13] 105 % of control | [14] 95 % of control | [15] 115 % of control

Cc1ccc2ccccc2c1NS(=O)(=O)c1ccccc1
inactive: [20] 95 % of control | [21] 95 % of control | dose: 400.0 mg/kg/injection, schedule: Q01DX001 (ip), vehicle: saline with Tween-80 91 % of control

O=N[O-].O=N[O-].[Co].[NH-]CC[NH-].[NH-]CC[NH-]
inactive: dose: 6.25 mg/kg/injection, schedule: Q04DX003 (ip), vehicle: water 98 % of control | dose: 12.5 mg/kg/injection, schedule: Q04DX003 (ip), vehicle: distilled water + Tween-80 96 % of control | dose: 12.5 mg/kg/injection, schedule: Q04DX003 (ip), vehicle: water 101 % of control | dose: 25.0 mg/kg/injection, schedule: Q04DX003 (ip), vehicle: water 102 % of control | dose: 50.0 mg/kg/injection, schedule: Q04DX003 (ip), vehicle: distilled water + Tween-80 99 % of control | dose: 50.0 mg/kg/injection, schedule: Q04DX003 (ip), vehicle: water 96 % of control | dose: 100.0 mg/kg/injection, schedule: Q04DX003 (ip), vehicle: distilled water + Tween-80 108 % of control

C/C=C1/CN2CCc3c([nH]c4ccccc34)C2CC1C(Cc1c[n+]2c(c3[nH]c4ccccc4c13)CC1C(C(=O)OC)=COC(C)C1C2)C(=O)OC (centres undefined)
inactive: [22] 91 % of control | [23] 89 % of control | [7] 90 % of control

CCN(CC)c1ccc(N=C(NC#N)SC)cc1
inactive: [13] 104 % of control | [14] 103 % of control | [15] 106 % of control

C[C@]12CC[C@H](OC(=O)/C=C\c3ccccc3N(CCCl)CCCl)CC1CC[C@@H]1C2CC[C@]2(C)NC(=O)CCC12 (some centres undefined)
inactive: [20] 105 % of control and 120 % of control | [21] 118 % of control

CC(=O)OC1C(OC(C)=O)C2C(C)CC3OC(=O)C(C)C3CC2(C)C1OC(C)=O (centres undefined)
inactive: dose: 6.25 mg/kg/injection, schedule: Q01DX009 (ip), vehicle: saline 110 % of control | dose: 12.5 mg/kg/injection, schedule: Q01DX009 (ip), vehicle: saline 103 % of control | [22] 100 % of control (2×) and 123 % of control | [19] 113 % of control | [23] 100 % of control and 121 % of control and 97 % of control | [7] 103 % of control and 104 % of control and 93 % of control | [8] 96 % of control | [9] 96 % of control

O=C1OC(c2ccccc2)=N/C1=C\c1ccc(Br)cc1
inactive: [1] 93 % of control | [2] 87 % of control and 95 % of control | [3] 87 % of control

C=CCOc1cc2c(cc1C(C)c1ccc(OCC)cc1)OCO2 (centres undefined)
inactive: [10] 100 % of control and 104 % of control | [11] 112 % of control and 91 % of control | [12] 122 % of control and 123 % of control

Cc1ccccc1C1OC2=C(Nc3ccc(Cl)cc3N2)C1=O (centres undefined)
inactive: [24] 101 % of control | [25] 91 % of control | [26] 101 % of control

COc1cc(CCN=Cc2ccccc2O)c([N+](=O)[O-])cc1OC
inactive: [1] 97 % of control | [2] 100 % of control | [3] 92 % of control

C1CSC(SCCCSC2SCCCS2)SC1
inactive: [16] 99 % of control | [17] 104 % of control | [18] 94 % of control

CCc1nc2c(Br)c3oc(CC)nc3c(C)c2o1
inactive: [24] 97 % of control | [25] 95 % of control | [26] 91 % of control
